Here are results for 24 compounds from patent US8815854B2, “Substituted imidazopyridinyl compounds” (ArQule, Inc., priority 2011, dated 2014).

pIC50: −log10 of the molar value.

The target in the assay is Full-length inactive AKT1 (Homo sapiens (Human), UniProt P31749). The assay is described as follows: Inactive Akt Alpha Screen Assay (AKT1, crosstide substrate). As to conditions: full-length inactive AKT1 activated by PDK1 and MAPKAPK2, lipid vesicles, 50 μM ATP; biotinylated crosstide substrate; read-out: Akt1 biochemical assay IC50 AlphaScreen crosstide. The protocol: AKT1 activity was assayed using the GSK3-derived biotinylated peptide substrate, crosstide (biotin-GRPRTSSFAEG), and AlphaScreen™ (Amplified Luminescent Proximity Homogeneous Assay) technology. AKT1 activation was achieved by the addition of the activating kinases PDK1 and MAPKAPK2, lipid vesicles, and ATP. The extent of peptide phosphorylation was determined using a phospho-AKT substrate antibody and acceptor beads conjugated to Protein A and donor beads conjugated to streptavidin that bind to the biotin on the peptide. Excitation of the donor beads converted ambient oxygen to excited singlet oxygen which, when in close proximity to acceptor beads, reacted with acceptor beads resulting in signal amplification.
Sequence of Full-length inactive AKT1 (P31749 whole entry): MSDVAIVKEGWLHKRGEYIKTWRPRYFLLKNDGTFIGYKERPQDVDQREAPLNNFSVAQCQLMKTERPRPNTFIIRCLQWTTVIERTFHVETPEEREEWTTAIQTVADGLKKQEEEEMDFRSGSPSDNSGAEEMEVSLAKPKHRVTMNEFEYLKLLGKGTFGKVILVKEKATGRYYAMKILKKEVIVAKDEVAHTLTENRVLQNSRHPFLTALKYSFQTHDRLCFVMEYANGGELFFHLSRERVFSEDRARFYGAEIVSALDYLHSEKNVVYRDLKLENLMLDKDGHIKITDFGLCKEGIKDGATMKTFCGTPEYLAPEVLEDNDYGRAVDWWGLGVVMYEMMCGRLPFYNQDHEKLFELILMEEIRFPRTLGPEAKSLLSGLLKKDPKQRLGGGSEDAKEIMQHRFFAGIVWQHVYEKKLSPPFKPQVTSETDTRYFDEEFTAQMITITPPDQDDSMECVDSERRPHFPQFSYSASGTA
Test inhibitors and controls ((S)-1-(5-(3-methyl-1H-indazol-5-yl)pyridin-3-yl)oxy)-3-phenylpropan-2-amine, 1-(1-(4-(7-phenyl-1H-imidazo[4,5-g]quinoxalin-6-yl)benzyl)piperidin-4-yl)-1H-benzo[d]imidazol-2(3H)-one, and 8-(4-(1-aminocyclobutyl)phenyl)-9-phenyl-[1,2,4]triazolo[3,4-f][1,6]naphthyridin-3(2H)-one) were prepared in 10% DMSO at 10-fold the desired final concentration, and added to each well of a reaction plate (Corning 96-well half-area solid white nonbinding surface plate) in a volume of 2.5 μL. […] After a 20 minute pre-incubation at room temperature, the kinase reaction was initiated by the addition of 5 μL of an activation mixture diluted in assay buffer containing biotinylated crosstide, PDK1, MAPKAPK2, DOPS/DOPC, PtdIns(3,4,5)P3, and ATP for final concentrations of 60 nM biotinylated crosstide, 0.1 nM PDK1, 0.7 nM MK2, 5.5 μM DOPS, 5.5 μM DOPC, 0.5 μM PtdIns(3,4,5)P3, and 50 μM ATP. The plates were incubated for 30 minutes at room temperature, and then stopped in the dark by the addition of 10 μL stop/detection mixture prepared in assay buffer containing EDTA, AlphaScreen™ Streptavidin Donor and Protein A Acceptor beads, and phospho-AKT substrate antibody for final concentrations of 10 mM EDTA, 500 ng/well of both AlphaScreen™ Streptavidin Donor beads and Protein A Acceptor beads, and phospho-AKT substrate antibody at a final dilution of 1:350. Assay plates were incubated for 90 minutes at room temperature in the dark, and the plates were read on a Perkin Elmer Envision Multilabel plate reader (excitation wavelength: […], emission wavelength: 570 nm).
Envision Instrument Settings: • Instrument: Perkin Elmer Envision • Plate: 96 well • Program Name: • Excitation: Ex Top • Minor: General Dual—Slot 2 • Excitation Filter: CFP430 Ex. Slot 2 • Emission Filter Emission 579—Em slot 2 • 2nd Emission Filter: None • Measurement Height (mm): 3.8 • Excitation light (%): 1 • Detector gain: 1 • 2nd detector gain: 0 • # Flashes: 10 • # Flashed/AD: 1 • Reference Signal: 383722 • AD gain: 4 • Reference Excitation (%): 100
What is called pIC50 is the IC50 on a negative log10 scale, so that one unit is a factor of ten. As to `NC1(c2ccc(-n3c(-c4ccccc4)nc4ccc(-c5ccccc5)nc43)cc2)CCC1` [Cmpd 5, 1-[4-(2,5-diphenyl-3H-imidazo[4,5-b]pyridin-3-yl)phenyl] cyclobutanamine], the pIC50 is 7.90. As to `NC1(c2ccc(-n3c(-c4cccnc4F)nc4ccc(-c5ccccc5)nc43)cc2)CCC1` [Cmpd 7, 1-{4-[2-(2-fluoropyridin-3-yl)-5-phenyl-3H-imidazo[4,5-b]pyridin-3-yl]phenyl}cyclobutanamine], the pIC50 is 7.94.

`NC1(c2ccc(-n3c(-c4ccccc4)nc4ccc(-c5cccc(N6CCOCC6)c5)nc43)cc2)CCC1` [Cmpd 9, 1-{4-[5-(3-morpholin-4-ylphenyl)-2-phenyl-3H-imidazo[4,5-b]pyridin-3-yl]phenyl}cyclobutanamine]: the pIC50 is 8.46. For the compound `NC1(c2ccc(-n3c(-c4ccccc4F)nc4ccc(-c5cccc(N6CCOCC6)c5)nc43)cc2)CCC1` [Cmpd 11, 1-{4-[2-(2-fluorophenyl)-5-(3-morpholin-4-ylphenyl)-3H-imidazo[4,5-b]pyridin-3-yl]phenyl}cyclobutanamine], the pIC50 is 8.70.

For the compound `NC1(c2ccc(-n3c(-c4cccs4)nc4ccc(-c5cccc(N6CCOCC6)c5)nc43)cc2)CCC1` [Cmpd 12, 1-{4-[5-(3-morpholin-4-ylphenyl)-2-(2-thienyl)-3H-imidazo[4,5-b]pyridin-3-yl]phenyl} cyclobutanamine], the pIC50 is 8.14.

Consider `NC1(c2ccc(-n3c(-c4ccsc4)nc4ccc(-c5cccc(N6CCOCC6)c5)nc43)cc2)CCC1` [Cmpd 13, 1-{4-[5-(3-morpholin-4-ylphenyl)-2-(3-thienyl)-3H-imidazo[4,5-b]pyridin-3-yl]phenyl} cyclobutanamine], for which the pIC50 was 8.24. The result for `NC1(c2ccc(-n3c(-c4ccccn4)nc4ccc(-c5cccc(N6CCOCC6)c5)nc43)cc2)CCC1` [Cmpd 14, 1-{4-[5-(3-morpholin-4-ylphenyl)-2-pyridin-2-yl-3H-imidazo[4,5-b]pyridin-3-yl]phenyl} cyclobutanamine] reads 8.77; that for `NC1(c2ccc(-n3c(-c4cccnc4)nc4ccc(-c5cccc(N6CCOCC6)c5)nc43)cc2)CCC1` [Cmpd 15, 1-{4-[5-(3-morpholin-4-ylphenyl)-2-pyridin-3-yl-3H-imidazo[4,5-b]pyridin-3-yl]phenyl} cyclobutanamine], 8.37; that for `NC1(c2ccc(-n3c(-c4ccncc4)nc4ccc(-c5cccc(N6CCOCC6)c5)nc43)cc2)CCC1` [Cmpd 16, 1-{4-[5-(3-morpholin-4-ylphenyl)-2-pyridin-4-yl-3H-imidazo[4,5-b]pyridin-3-yl]phenyl} cyclobutanamine], 8.11. With `NC1(c2ccc(-n3c(-c4nccs4)nc4ccc(-c5cccc(N6CCOCC6)c5)nc43)cc2)CCC1` [Cmpd 17, 1-{4-[5-(3-morpholin-4-ylphenyl)-2-(1,3-thiazol-2-yl)-3H-imidazo[4,5-b]pyridin-3-yl]phenyl} cyclobutanamine] the figure was 8.32.

As to `NC1(c2ccc(-n3c(-c4cc[nH]n4)nc4ccc(-c5cccc(N6CCOCC6)c5)nc43)cc2)CCC1` [Cmpd 18, 1-{4-[5-(3-morpholin-4-ylphenyl)-2-(1H-pyrazol-3-yl)-3H-imidazo[4,5-b]pyridin-3-yl]phenyl} cyclobutanamine], the pIC50 was 8.14.

For `NC1(c2ccc(-n3c(-c4cc[nH]c4)nc4ccc(-c5cccc(N6CCOCC6)c5)nc43)cc2)CCC1` [Cmpd 19, 1-{4-[5-(3-morpholin-4-ylphenyl)-2-(1H-pyrrol-3-yl)-3H-imidazo[4,5-b]pyridin-3-yl]phenyl} cyclobutanamine], the pIC50 is 8.25. With `COC(=O)c1ccccc1-c1nc2ccc(-c3cccc(N4CCOCC4)c3)nc2n1-c1ccc(C2(N)CCC2)cc1` [Cmpd 20, methyl 2-{3-[4-(1-aminocyclobutyl)phenyl]-5-(3-morpholin-4-ylphenyl)-3H-imidazo[4,5-b]pyridin-2-yl} benzoate] the figure was 5.28; with `NC1(c2ccc(-n3c(C4CCCCC4)nc4ccc(-c5cccc(N6CCOCC6)c5)nc43)cc2)CCC1` [Cmpd 24, 1-{4-[2-cyclohexyl-5-(3-morpholin-4-ylphenyl)-3H-imidazo[4,5-b]pyridin-3-yl]phenyl} cyclobutanamine], 5.94. On to `NC1(c2ccc(-n3c(-c4ccc(O)cc4)nc4ccc(-c5cccc(N6CCOCC6)c5)nc43)cc2)CCC1` [Cmpd 26, 4-{3-[4-(1-aminocyclobutyl)phenyl]-5-(3-morpholin-4-ylphenyl)-3H-imidazo[4,5-b]pyridin-2-yl}phenol], for which the pIC50 was 8.35. With `NC1(c2ccc(-n3c(-c4cccc(F)c4)nc4ccc(-c5cccc(N6CCOCC6)c5)nc43)cc2)CCC1` [Cmpd 30, 1-{4-[2-(3-fluorophenyl)-5-(3-morpholin-4-ylphenyl)-3H-imidazo[4,5-b]pyridin-3-yl]phenyl}cyclobutanamine] the figure was 8.32. The result for `NC1(c2ccc(-n3c(-c4ccc(F)cc4)nc4ccc(-c5cccc(N6CCOCC6)c5)nc43)cc2)CCC1` [Cmpd 31, 1-{4-[2-(4-fluorophenyl)-5-(3-morpholin-4-ylphenyl)-3H-imidazo[4,5-b]pyridin-3-yl]phenyl}cyclobutanamine] reads 7.45. `NC1(c2ccc(-n3c(-c4ccc(Cl)cc4)nc4ccc(-c5cccc(N6CCOCC6)c5)nc43)cc2)CCC1` [Cmpd 34, 1-{4-[2-(4-chlorophenyl)-5-(3-morpholin-4-ylphenyl)-3H-imidazo[4,5-b]pyridin-3-yl]phenyl}cyclobutanamine]: the pIC50 is 8.23. The result for `NC(=O)c1cccc(-c2ccc3nc(-c4ccccc4)n(-c4ccc(C5(N)CCC5)cc4)c3n2)c1` [Cmpd 35, 3-{3-[4-(1-aminocyclobutyl)phenyl]-2-phenyl-3H-imidazo[4,5-b]pyridin-5-yl}benzamide] reads 8.20; that for `CN(C)C(=O)c1cccc(-c2ccc3nc(-c4ccccc4)n(-c4ccc(C5(N)CCC5)cc4)c3n2)c1` [Cmpd 36, 3-{3-[4-(1-aminocyclobutyl)phenyl]-2-phenyl-3H-imidazo[4,5-b]pyridin-5-yl}-N,N-dimethylbenzamide], 8.24.

Take `CNC(=O)c1cccc(-c2ccc3nc(-c4ccccc4)n(-c4ccc(C5(N)CCC5)cc4)c3n2)c1` [Cmpd 37]: the negative logarithm of the IC50 (pIC50) is 8.30.

On to `NC1(c2ccc(-n3c(-c4cnccn4)nc4ccc(-c5cccc(N6CCOCC6)c5)nc43)cc2)CCC1` [Cmpd 42, 1-{4-[5-(3-morpholin-4-ylphenyl)-2-pyrazin-2-yl-3H-imidazo[4,5-b]pyridin-3-yl]phenyl} cyclobutanamine], for which the pIC50 is 8.37. Regarding `NC1(c2ccc(-n3c(C4CC4)nc4ccc(-c5cccc(N6CCOCC6)c5)nc43)cc2)CCC1` [Cmpd 44, 1-{4-[2-cyclopropyl-5-(3-morpholin-4-ylphenyl)-3H-imidazo[4,5-b]pyridin-3-yl]phenyl}cyclobutanamine], the pIC50 was 6.06. The result for `NC1(c2ccc(-n3c(-c4ccccc4)nc4ccc(Nc5ccccc5)nc43)cc2)CCC1` [Cmpd 47, 3-[4-(1-aminocyclobutyl)phenyl]-N,2-diphenyl-3H-imidazo[4,5-b]pyridin-5-amine] reads 8.38.
